Reference: patent US8278072B1, “Method for synthesis of sialylated products using reversible sialylation” (Health Research, Inc., priority 2007, dated 2012)
Counter-ions that a name gives are not always drawn. Like-named read-outs stand apart in the source and are kept apart here.

Experiments:
Format in all cases: biochemical
ST3Gal-II [1] = target: T1, ST3Gal-II (Rattus norvegicus, UniProt Q11205); experiment: CMP-NeuAc / UMP-NeuAc formed by reverse sialylation as sialyl donor, ST3Gal-II activity; details: acceptor 2.5 mM D-Fucβ1,3GalNAcα-O-Bn; donor [3] 0.0625 mM, 8 mM 5′-CMP or 5′-UMP, 4 h, blank subtracted
T1 construct: purchased Calbiochem
T1 sequence (Q11205 1-350): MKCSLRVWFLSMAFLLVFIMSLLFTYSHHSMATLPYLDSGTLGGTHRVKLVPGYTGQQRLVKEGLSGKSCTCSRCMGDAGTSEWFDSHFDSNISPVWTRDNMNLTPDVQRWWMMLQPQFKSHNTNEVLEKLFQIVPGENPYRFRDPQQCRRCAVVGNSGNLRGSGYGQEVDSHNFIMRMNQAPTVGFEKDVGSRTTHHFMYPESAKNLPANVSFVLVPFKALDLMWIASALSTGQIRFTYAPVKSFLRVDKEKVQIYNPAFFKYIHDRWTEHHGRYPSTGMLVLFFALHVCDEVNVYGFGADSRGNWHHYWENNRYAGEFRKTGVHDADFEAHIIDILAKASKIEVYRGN

ST3Gal-III = target: T2, ST3Gal-III (Rattus norvegicus, UniProt Q02734); experiment: CMP-NeuAc / UMP-NeuAc formed by reverse sialylation as sialyl donor, ST3Gal-III activity; details: acceptor 2.5 mM 4-O-MeGalβ1,4GlcNAcβ-O-Bn; donor [3] 0.0625 mM, 8 mM 5′-CMP or 5′-UMP, ST3Gal-II plus ST3Gal-III, 4 h
T2 construct: purchased Calbiochem
T2 sequence (Q02734 1-374): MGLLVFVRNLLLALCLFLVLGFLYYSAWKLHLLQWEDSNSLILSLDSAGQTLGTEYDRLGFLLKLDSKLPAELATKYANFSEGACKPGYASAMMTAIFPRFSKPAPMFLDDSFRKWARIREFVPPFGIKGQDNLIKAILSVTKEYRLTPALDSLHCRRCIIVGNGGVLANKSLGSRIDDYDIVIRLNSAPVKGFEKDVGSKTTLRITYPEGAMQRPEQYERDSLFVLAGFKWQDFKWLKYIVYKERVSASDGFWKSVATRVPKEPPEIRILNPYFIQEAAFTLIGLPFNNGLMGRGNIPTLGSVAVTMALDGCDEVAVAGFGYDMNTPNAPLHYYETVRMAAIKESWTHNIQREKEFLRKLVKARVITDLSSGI

ST6Gal-I = target: T3, ST6Gal-I (Rattus norvegicus, UniProt P13721); experiment: CMP-NeuAc / UMP-NeuAc formed by reverse sialylation as sialyl donor, ST6Gal-I activity; details: acceptor 2.5 mM Galβ1,4GlcNAcβ-O-Bn; donor [3] 0.0625 mM, 8 mM 5′-CMP or 5′-UMP, ST3Gal-II plus ST6GalI, 4 h
T3 construct: purchased Calbiochem
T3 sequence (P13721 1-403): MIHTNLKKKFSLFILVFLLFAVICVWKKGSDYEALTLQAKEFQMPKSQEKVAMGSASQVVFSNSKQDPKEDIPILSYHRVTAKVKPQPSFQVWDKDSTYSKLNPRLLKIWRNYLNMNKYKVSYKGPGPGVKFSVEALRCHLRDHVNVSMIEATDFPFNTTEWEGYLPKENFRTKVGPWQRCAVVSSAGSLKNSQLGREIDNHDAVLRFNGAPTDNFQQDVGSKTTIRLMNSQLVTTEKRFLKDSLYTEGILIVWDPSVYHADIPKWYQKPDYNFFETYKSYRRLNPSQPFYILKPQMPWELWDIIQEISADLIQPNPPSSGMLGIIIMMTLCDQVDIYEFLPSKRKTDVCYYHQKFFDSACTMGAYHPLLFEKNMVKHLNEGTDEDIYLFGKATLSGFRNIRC

[2] = target: T4, ST3Gal III (Cloned rat liver) (Rattus norvegicus, UniProt Q02734); experiment: Forward (direct) sialyltransferase activity, ST3Gal-III
T4 construct: purchased Calbiochem
T4 sequence (Q02734 1-374): T2 sequence (Q02734 1-374)
Experimental: (§1) FIG. 5. Effect of 5′-nucleotides on direct sialyltransferase activity (panel a) and reverse sialylation (panel b). a. Varying concentrations of 5′-CDP or 5′-CMP were added to 100 mM acceptor (specified below), 0.15 mM CMP-[9-^3H]NeuAc and either ST3Gal-II (0.2 mU), ST3Gal-III (0.5 mU) or ST6Gal-I (0.2 mU) for 4 h at 37° C. Products were separated using Sep-Pak C18 method. ST3Gal-III activity was measured using acceptor 4-O-MeGalβ1,4GlcNAcβ-O-Bn in the presence of 5′-CDP (●) and 5′-CMP (◯). ST6Gal-I activity was measured using Gal β1,4GlcNAcβ-O-Bn in the presence of 5′-CDP (▴) and 5′-CMP (Δ). ST3Gal-II using D-Fucβ1,3GalNAcα-O-Bn in the presence of 5′-CDP (▪) and 5′-CMP (□). b) Reverse sialylation by ST3Gal-II was measured in reaction mixtures containing 0.2 mM [9-^3H] [3], 7 mM 5′-CMP, ST3Gal-II (2 mU), D-Fucβ1,3GalNAcα-OBn (3.0 mM) and varying doses of either 5′-CDP (▴), 5′-UMP (◯) or 2-deoxy 5′-CMP (●) for 4 hours at 37° C. Reaction product ([9-^3H]NeuAcα2,3DFucβ1,3 GalNAcα-O-Bn) was isolated using Sep-Pak C18 method. In some runs, where was absent, the amount of CMP-NeuAc produced was quantified using the Dowex-1 Formate method in the presence of varying doses of 5′-CDP (▪).
(§2) Besides pH other distinctions were also observed between forward and reverse sialylation. In this regard, citrate ions tended to inhibit forward sialylation but not reverse sialylation activity (Table V). For these studies, the effect of citrate on the forward sialylation activity of ST3Gal-I, ST3Gal-II, ST3Gal-III and ST6Gal-I was examined. Reverse sialylation activity of ST3Gal-II was also measured in terms of: i) the formation of CMP-NeuAc from 5′-CMP; and ii) the transfer of NeuAc from this newly synthesized CMP-NeuAc to another O-glycan. From the data (Table V), it is evident that citrate inhibits the direct sialylation activity of all the enzymes mentioned above. However, both the synthesis of CMP-[9-^3H]NeuAc from 5′-CMP as well as the synthesis of [9-^3H]NeuAcα2,3D-Fucβ1,3 GalNAcα-O-Bn using the newly formed CMP-[9-^3H]NeuAc through reverse sialylation of ST3Gal-II was not inhibited by citrate.
(§3) The effect of 5′-nucleotides on forward sialylation (FIG. 5a) and reverse sialylation (FIG. 5b) were examined. […] The overall formation of [9-^3H]NeuAcα2,3D-Fucβ1,3 GalNAcα-O-Bn by the two-step reverse sialylation process, however, was inhibited by 5′-CDP and this is consistent with the finding that 5′-CDP inhibits forward sialylation in the second step.

[3] = target: T5, ST6Gal I (Cloned rat liver) (Rattus norvegicus, UniProt P13721); experiment: Forward (direct) sialyltransferase activity, ST6Gal-I
T5 construct: purchased Calbiochem
T5 sequence (P13721 1-403): T3 sequence (P13721 1-403)
Experimental: as §1, §2, §3

[4] = target: T6, ST3Gal II (Cloned rat liver) (Rattus norvegicus, UniProt Q11205); experiment: Forward (direct) sialyltransferase activity, ST3Gal-II
T6 construct: purchased Calbiochem
T6 sequence (Q11205 1-350): T1 sequence (Q11205 1-350)
Experimental: as §1, §2, §3

ST3Gal I (Cloned Human) = target: T7, ST3Gal I (Cloned Human) (Homo sapiens, UniProt Q11201); experiment: Forward (direct) sialyltransferase activity, ST3Gal I
T7 sequence (Q11201 1-340): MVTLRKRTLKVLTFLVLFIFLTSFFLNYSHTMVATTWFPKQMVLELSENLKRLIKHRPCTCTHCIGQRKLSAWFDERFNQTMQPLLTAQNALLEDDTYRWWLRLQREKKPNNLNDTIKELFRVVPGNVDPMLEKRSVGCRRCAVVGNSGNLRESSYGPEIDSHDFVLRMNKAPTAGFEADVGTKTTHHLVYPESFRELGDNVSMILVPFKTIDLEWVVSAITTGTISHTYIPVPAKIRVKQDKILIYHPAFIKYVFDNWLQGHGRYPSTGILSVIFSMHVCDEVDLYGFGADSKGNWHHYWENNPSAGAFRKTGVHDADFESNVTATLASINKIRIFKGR
Experimental: as §2

ST3Gal-II [5] = target: T1, ST3Gal-II; experiment: Reverse sialylation by ST3Gal-II in presence of citrate or 5′-nucleotides; details: for inhibition at 40000 µM: 40 mM citrate, donor [3]
Experimental: as §1, §2, §3

[6] = acceptor Galβ1,3GalNAcβ-O-Al 1.0 mM, 0.15 mM CMP-[9-3H]NeuAc, 4 hours

| SMILES | Incorporation of [9-3H]NeuAc into the acceptor, ST3Gal-II activity (ST3Gal-II [1]) | Incorporation of [9-3H]NeuAc into the acceptor, ST3Gal-III activity (ST3Gal-III) | Incorporation of [9-3H]NeuAc into the acceptor, ST6Gal-I activity (ST6Gal-I) | inhibition at 40000 µM ([2]; 40 mM citrate, acceptor 4-O-MeGalβ1,4GlcNAcβ-O-Bn) | Activity (Incorporation of [9-3H]NeuAc) with citrate (40 mM) ([2]; acceptor 4-O-MeGalβ1,4GlcNAcβ-O-Bn 1.0 mM, 0.15 mM CMP-[9-3H]NeuAc, 4 hours) | inhibition at 40000 µM ([3]; 40 mM citrate, acceptor Galβ1,4GlcNAcβ-O-Bn) | Activity (Incorporation of [9-3H]NeuAc) with citrate (40 mM) ([3]; acceptor Galβ1,4GlcNAcβ-O-Bn 1.0 mM, 0.15 mM CMP-[9-3H]NeuAc, 4 hours) | inhibition at 40000 µM ([4]; 40 mM citrate, acceptor Galβ1,3GalNAcβ-O-Al) | Activity (Incorporation of [9-3H]NeuAc) with citrate (40 mM) [4, 6] | inhibition at 40000 µM (ST3Gal I (Cloned Human)) | Activity (Incorporation of [9-3H]NeuAc) with citrate (40 mM) (ST3Gal I (Cloned Human); [6]) | inhibition at 40000 µM (ST3Gal-II [5]; read-out: Inhibition of synthesis of CMP-[9-3H]NeuAc from 5′-CMP) | inhibition at 40000 µM (ST3Gal-II [5]; read-out: Inhibition of synthesis of [9-3H]NeuAcα2,3D-Fucβ1,3GalNAcα-OBn through 5′-CMP) | Activity (Incorporation of [9-3H]NeuAc) with citrate (40 mM): synthesis of [9-3H]NeuAcα2,3D-Fucβ1,3GalNAcα-OBn through 5′-CMP (ST3Gal-II [5]; donor […] [3], 20 mM 5′-CMP, 3.0 mM D-Fucβ1,3GalNAcα-OBn, 4 hours) | Activity (Incorporation of [9-3H]NeuAc) with citrate (40 mM): synthesis of CMP-[9-3H]NeuAc from 5′-CMP (ST3Gal-II [5]; donor […] [3], 20 mM 5′-CMP, 5.0 mU ST3Gal-II, 4 hours) |
| --- | --- | --- | --- | --- | --- | --- | --- | --- | --- | --- | --- | --- | --- | --- | --- |
| CC(=O)NC1C(O)CC(OP(=O)(O)OCC2OC(n3ccc(=O)[nH]c3=O)C(O)C2O)(C(=O)O)OC1C(O)C(O)CO (stereo not drawn) [UMP-NeuAc] | 1243 CPM | 3804 CPM | 182 CPM |  |  |  |  |  |  |  |  |  |  |  |  |
| O=C(O)CC(O)(CC(=O)O)C(=O)O [citrate, sodium citrate] |  |  |  | 64.3% | 39115 CPM | 92.4% | 7471 CPM | 48.2% | 33025 CPM | 98.3% | 402 CPM | 0% | 0% | 59131 CPM | 48800 CPM |
